Reference: patent US9504685B2, “Method for treating a pulmonary hypertension condition” (Gilead Sciences, Inc., priority 2006, dated 2016)

Tested on: subjects with PAH
Assay: Example 1 (ARIES-2) placebo-controlled Phase III trial, efficacy
Format: in vivo, human
Conditions: for Change in 6MWD from baseline to Week 12, mean / Week 12 6MWD, mean: ITT population; for geometric mean percent change in plasma ET-1, increase from baseline / geometric mean plasma BNP, decrease from baseline / mean BDI change from baseline: Week 12
Procedure: The primary objective of this study was to determine the effect of ambrisentan on exercise capacity in subjects with PAH. The secondary objectives of this study were to evaluate effects of ambrisentan on other clinical measures of PAH, as well as safety and tolerability of the study drug.
Study drug was provided in round, biconvex, oral tablets that were identical in appearance. Three strengths of active study drug, containing 1 mg, 2.5 mg or 5 mg of ambrisentan, were used in this study. All study drug was packaged in blister cards. Subjects were instructed to take study drug once daily (q.d.) by mouth (p.o.) in the morning, with or without food.
The maximum study duration was up to 14 weeks from the time of initial screening procedures to the final study visit (Week 12). Screening procedures were performed a maximum of 2 weeks prior to the first dose of study drug. The maximum duration of study drug treatment was 12 weeks.
Men and women, 18 years of age or older, with idiopathic PAH, PAH associated with connective tissue disease (CTD), e.g., mixed CTD, CREST syndrome, systemic sclerosis (scleroderma), overlap syndrome or systemic lupus erythematosus, or PAH associated with anorexigen use or HIV infection were enrolled in this study. Subjects were to have a documented mean PAP≧25 mmHg, PVR>3 mmHg/L/min, and PCWP or LVEDP<15 mmHg. Subjects must have been able to walk a distance of at least 150 m but no more than 450 m during 2 consecutive 6MWTs to be eligible for inclusion in the study.
After a 2 week screening period, eligible subjects were stratified based on the underlying etiology of PAH (idiopathic or non-idiopathic) and were randomized to 1 of 3 treatment groups (placebo, 2.5 mg or 5 mg ambrisentan) in a ratio of 1:1:1. One blinded dose reduction was permitted during the 12-week treatment period in the event of study drug intolerance (e.g., 5 mg to 2.5 mg, 2.5 mg to 1 mg, placebo to placebo). Subjects received a daily dose of 1 mg ambrisentan only if they reduced from the 2.5 mg dose group. Subjects were assessed for efficacy and safety at monthly intervals.
Therefore, after a minimum treatment period of 4 weeks, subjects who met 2 or more of the following predefined early escape criteria may have been removed from the study: • (a) a decrease from baseline of at least 20% in 6MWD; • (b) an increase of 1 or more WHO functional class; • (c) worsening right ventricular failure (e.g., as indicated by increased jugular venous pressure, new or worsening hepatomegaly, ascites or peripheral edema); • (d) rapidly progressing cardiogenic, hepatic or renal failure; and/or • (e) refractory systolic hypotension (systolic blood pressure <85 mmHg).
The primary efficacy endpoint was change from baseline in 6MWD evaluated after 12 weeks of treatment compared to placebo.
The secondary efficacy endpoints included: • (a) time to clinical worsening of PAH, as defined by the time from randomization to the first occurrence of death, lung transplantation, hospitalization for PAH, atrial septostomy, study discontinuation due to addition of other PAH therapeutic agents, or study discontinuation due to 2 or more early escape criteria; • (b) change from baseline measured after 12 weeks of treatment compared to placebo in: • (i) WHO functional class; • (ii) SF-36® health survey physical functioning scale; • (iii) BDI immediately following exercise; and/or • (iv) an assessment of the safety and tolerability of the study drug; and • (c) change from baseline measured after 12 weeks of treatment compared to placebo in plasma levels of ET-1, cTnT and BNP. Safety Assessments
For the ITT population, subjects were considered as belonging to their randomized treatment group, regardless of the actual treatment received.
The primary efficacy endpoint was the change from baseline in 6MWD evaluated after 12 weeks of treatment compared to placebo, where the last observation was carried forward. […]

[1] = 2.5 mg once daily, baseline to Week 12
[2] = 5 mg once daily, baseline to Week 12

Q: What does the source list for `COC(c1ccccc1)(c1ccccc1)[C@H](Oc1nc(C)cc(C)n1)C(=O)O` [ambrisentan]?
A: placebo-adjusted improvement in mean 6MWD at Week 12 (2.5 mg once daily): +32.3 m; subjects at least maintaining their baseline WHO functional class at Week 12 (2.5 mg once daily): 95.3%; Clinical worsening event: Atrial septostomy (2.5 mg once daily, 12 weeks): 0 (0.0) subjects (% of ITT population); Clinical worsening event: Death (2.5 mg once daily, 12 weeks): 2 (3.1) subjects (% of ITT population); Clinical worsening event: Escape criteria (2.5 mg once daily, 12 weeks): 2 (3.1) subjects (% of ITT population); Clinical worsening event: Hospitalization for PAH (2.5 mg once daily, 12 weeks): 3 (4.7) subjects (% of ITT population); Clinical worsening event: Lung transplantation (2.5 mg once daily, 12 weeks): 0 (0.0) subjects (% of ITT population); Clinical worsening event: Study withdrawal due to addition of PAH treatment (2.5 mg once daily, 12 weeks): 0 (0.0) subjects (% of ITT population); Clinical worsening: Total subjects with ≧1 event (2.5 mg once daily, 12 weeks): 3 (4.7) subjects (% of ITT population); subjects who experienced an event of clinical worsening (2.5 mg once daily, 12 weeks): 4.7%; Change in 6MWD from baseline to Week 12, mean (2.5 mg once daily): +22.2 meters; Week 12 6MWD, mean (2.5 mg once daily): 369.6 meters; geometric mean percent change in plasma ET-1, increase from baseline (2.5 mg once daily): 19%; geometric mean plasma BNP, decrease from baseline (2.5 mg once daily): 29%; mean BDI change from baseline (2.5 mg once daily): −0.20; Change in SF-36 Bodily pain, mean (SD) [1]: +2.34 (11.87); Change in SF-36 General health, mean (SD) [1]: +3.84 (6.71); Change in SF-36 Mental component summary, mean (SD) [1]: +4.05 (10.30); Change in SF-36 Mental health, mean (SD) [1]: +4.98 (9.70); Change in SF-36 Physical component summary, mean (SD) [1]: +3.78 (7.63); Change in SF-36 Physical functioning, mean (SD) [1]: +3.86 (7.14); Change in SF-36 Role-emotional, mean (SD) [1]: +3.11 (12.90); Change in SF-36 Role-physical, mean (SD) [1]: +5.87 (11.72); Change in SF-36 Social functioning, mean (SD) [1]: +4.55 (9.72); Change in SF-36 Vitality, mean (SD) [1]: +4.07 (9.12); Change in WHO functional class: +1 class [1]: 2 (3.1) subjects (% of ITT population); Change in WHO functional class: +2 classes [1]: 1 (1.6) subjects (% of ITT population); Change in WHO functional class: no change [1]: 51 (79.7) subjects (% of ITT population); Change in WHO functional class: −1 class [1]: 10 (15.6) subjects (% of ITT population); Change in WHO functional class: −2 classes [1]: 0 (0.0) subjects (% of ITT population); placebo-adjusted improvement in mean 6MWD at Week 12 (5 mg once daily): +59.4 m; subjects at least maintaining their baseline WHO functional class at Week 12 (5 mg once daily): 96.8%; Clinical worsening event: Atrial septostomy (5 mg once daily, 12 weeks): 0 (0.0) subjects (% of ITT population); Clinical worsening event: Death (5 mg once daily, 12 weeks): 0 (0.0) subjects (% of ITT population); Clinical worsening event: Escape criteria (5 mg once daily, 12 weeks): 1 (1.6) subjects (% of ITT population); Clinical worsening event: Hospitalization for PAH (5 mg once daily, 12 weeks): 2 (3.2) subjects (% of ITT population); Clinical worsening event: Lung transplantation (5 mg once daily, 12 weeks): 0 (0.0) subjects (% of ITT population); Clinical worsening event: Study withdrawal due to addition of PAH treatment (5 mg once daily, 12 weeks): 0 (0.0) subjects (% of ITT population); Clinical worsening: Total subjects with ≧1 event (5 mg once daily, 12 weeks): 3 (4.8) subjects (% of ITT population); subjects hospitalized for worsening right heart failure (5 mg once daily, 12 weeks): 1 subjects; subjects who experienced an event of clinical worsening (5 mg once daily, 12 weeks): 4.8%; Change in 6MWD from baseline to Week 12, mean (5 mg once daily): +49.4 meters; Week 12 6MWD, mean (5 mg once daily): 404.7 meters; geometric mean percent change in plasma ET-1, increase from baseline (5 mg once daily): 72%; geometric mean plasma BNP, decrease from baseline (5 mg once daily): 30%; mean BDI change from baseline (5 mg once daily): −0.36; Change in SF-36 Bodily pain, mean (SD) [2]: +0.46 (9.99); Change in SF-36 General health, mean (SD) [2]: +4.95 (8.05); Change in SF-36 Mental component summary, mean (SD) [2]: +6.28 (11.64); Change in SF-36 Mental health, mean (SD) [2]: +4.03 (10.13); Change in SF-36 Physical component summary, mean (SD) [2]: +2.97 (7.79); Change in SF-36 Physical functioning, mean (SD) [2]: +2.96 (6.81); Change in SF-36 Role-emotional, mean (SD) [2]: +8.15 (14.43)
